Like-named read-outs stand apart in the source and are kept apart here. *: point of attachment. Boc = CC(C)(C)OC(=O)*
Tests used:
[1] = target: T1, γ-secretase (Homo sapiens, UniProt P49768); experiment: Aβ secretion by C99 cells (HEK293 stably expressing APP-C99), γ-secretase inhibitory effect, Aβ ELISA of culture supernatant; format: cell-based; settings: for IC50: interpolated from the two concentrations that bracket 50%
Source text: HEK293 cells (ATCC) were transfected with APP C99 pcDNA3.1 (the nucleotide sequence of its coding region is shown in SEQ ID NO: 1) (J. Biol. Chem., 2003, 278, 49448-49458). Cell strains (C99 cells) confirmed to stably express APP-C99 (artificial APP fragment that originally lacked a polypeptide portion to be cleaved by α- or β-secretase at the first stage in the two-stage reaction of Aβ production from APP) were used to study the γ-secretase inhibitory effects of four test substances (TLVM-5, TLVM-7, TLVM-8, and TLVM-9) in vitro.
(§1) In the present test, a medium used for the C99 cells was 500 mL of a Dulbecco's Modified Eagle's Medium (DMEM, Sigma-Aldrich Corp.) supplemented with 55 ml of fetal bovine serum (Biosource), 5.5 ml of MEM non-essential amino acids (Gibco), and 5.5 ml of penicillin/streptomycin (Gibco).
The C99 cells were suspended at a concentration of 5×10^4 cells/ml in the medium. The suspension was added at a concentration of 1 ml (5×10^4 cells)/well to a 24-well collagen plate (Akita Sumitomo Bakelite Co., Ltd.) and cultured for 3 days. Then, the medium in the wells was removed, and the wells were washed with a medium (1 ml/well). The medium was removed, and a fresh medium was then added thereto at a concentration of 0.4 ml/well. The cells were exposed to the test substances and positive controls and incubated for 24 hours, and the culture supernatants were collected. The positive controls used were L-685,458 (CALBIOCHEM) and Boc-Leu-Val-Met-Leu-OMe (hereinafter, referred to as LVML-1) disclosed in Example 1 of Patent Document 1 (WO03/091278). The exposure concentrations were set to four concentrations, 0.3, 1, 3, and 10 μmol/L, for all the test substances and the positive controls. The concentrations of Aβ (1-40) and Aβ (1-42) in the culture supernatants were measured using Human Amyloid β (1-40) (N) Assay Kit (L)-IBL and Human Amyloid β (1-42) (N) Assay Kit (L)-IBL (Immuno-Biological Laboratories, Co., Ltd.). The amounts of Aβ (1-40) and Aβ (1-42) secreted were calculated by subtracting the concentrations of Aβ (1-40) and Aβ (1-42) originally contained in the medium before the C99 cell inoculation, from the measured concentrations thereof, respectively. Moreover, when the Aβ secretion rate of a negative control (5% DMSO-containing medium, resulting in 1% DMSO at the final concentration) is defined as 100%, Aβ secretion rates at each concentration of the test substances and the positive controls were calculated.
The TLVM-5, TLVM-7, TLVM-8, and TLVM-9 confirmed in Example 8 to have strong inhibitory activities against γ-secretase activities were subjected to an additional experiment at low concentrations (exposure concentrations were set to three concentrations, […], for the test substances and to four concentrations, 0.1, 0.3, 1, and 3 μmol/L, for the positive control).
Moreover, Aβ secretion rates at two concentrations of the test substance that bracket the concentration at which Aβ secretion was inhibited by 50% (IC50) were used to calculate IC50 according to the following equation: IC50:10^[LOG(A/B)*(50−C)/(D−C)+LOG(B)],wherein
A: of the two points that bracket 50% inhibition, the higher concentration of the test substance,
B: of the two points that bracket 50% inhibition, the lower concentration of the test substance,
C: secretion rate (%) at the concentration B, and
D: secretion rate (%) at the concentration A.

[2] = target: T1, γ-secretase; experiment: Substrate specificity: FLAG-Aβ secretion by HEK293 cells transfected with FLAG APP C99, anti-FLAG immunoprecipitation/western blot; format: cell-based; settings: for (i) Aβ secretion rate of HEK293 cells: 24 h, FLAG APP C99, negative control = 100%
Description: (§2) Of families constituting human Alcadein (hereinafter, referred to as Alc) known as a substrate for γ-secretase to colocalize with APP in brain neurons, an artificial Alcα fragment (hereinafter, referred to as Alcα C150) whose first extracellular cleavage site and γ-secretase cleavage site were determined was used to study the substrate specificity of the γ-secretase inhibitor of the present invention. β-Alcα produced from a first cleavage construct of Alcα cannot be quantified by sELISA used in Aβ measurement. Therefore, proteins with an attached FLAG tag at the N termini of first cleavage constructs of Alcα and of C99 were expressed by cells. FLAG-Aβ-like peptides secreted into a medium were collected by immunoprecipitation using anti-FLAG antibodies and detected by western blotting using the antibodies. A specific method thereof is shown below.
(§3) HEK293 cells (ATCC) (1×10^7 cells/10 cm dish) cultured in 6 ml of 10% FCS-containing DMEM (Wako Pure Chemical Industries, Ltd.) were transfected with FLAG APP C99 pcDNA3.1 (the nucleotide sequence of its coding region is shown in SEQ ID NO: 2) (J. Biol. Chem., 2003, 278, 49448-49458 (which was prepared from pcDNA3-APPC99)) or with FLAG Alcα C150 pcDNA3.1 (the nucleotide sequence of its coding region is shown in SEQ ID NO: 3) (J. Biol. Chem., 2004, 279, 24343-24354 (which was the same as pcDNA3AlcαΔE)) using Lipofectamine 2000 (Invitrogen Corp.) according to the protocol included in the reagent. Each inhibitor and a positive control (γ-Secretase Inhibitor IX (DAPT)) (Calbiochem Contact Information) were separately added at a concentration of 0.2 or 2 μmol/L. The same dose of DMSO (Wako Pure Chemical Industries, Ltd.) thereas was added as a negative control. 24 hours later, the culture supernatants were collected, and samples were preliminarily purified using beads (100 μL of 50% (v/v) Protein-G Sepharose (GE Healthcare)). Then, 15 μL of 50% (v/v) anti-FLAG antibody M2 beads (Sigma-Aldrich Corp.) were added thereto, and the samples were incubated at 4° C. for 1 hour. The beads were collected by centrifugation and washed three times with a buffer (10 mM Tris-HCl [pH 8.0], 140 mM NaCl, 0.1% n-octyl glucoside, 0.025% sodium azide), and Aβ and β-Alcα in the medium were collected. The proteins were subjected to SDS-PAGE using a 15% Tris-Tricine gel (Anal Biochem., 1987, 166 (2), 368-379) and then transferred to a membrane. The membrane was boiled for 5 minutes in PBS. Then, anti-FLAG M2 antibodies (5 μg/ml) (Sigma-Aldrich Corp.) were added thereto, and the membrane was incubated, followed by detection using a western blotting detection reagent ECL (GE Healthcare). This signal was quantified using Versa-doc system (Bio-Rad Laboratories, Inc.) to calculate protein secretion rates (the protein secretion rate of the negative control is defined as 100%).

[3] = target: T1, γ-secretase; experiment: Substrate specificity: β-Alcα secretion by HEK293 cells transfected with FLAG Alcα C150, anti-FLAG immunoprecipitation/western blot; format: cell-based; settings: for (ii) β-Alcα secretion rate of HEK293 cells: 24 h, FLAG Alcα C150, negative control = 100%
Description: as §2, §3

[4] = test system: C99 cells; experiment: Cytotoxicity on C99 cells, cell viability by Cell Counting Kit-8; format: cell-based, human; settings: 24 h
Description: The cytotoxicity of four test substances (TLVM-5, TLVM-7, TLVM-8, and TLVM-9) on the C99 cells was measured using a method shown below.
as §1
The C99 cells were suspended at a concentration of 0.75×10^5 cells/ml in the medium. The suspension was added at a concentration of 100 μL (0.75×10^4 cells)/well to a 96-well collagen plate (Akita Sumitomo Bakelite Co., Ltd.) and cultured for 2 days. Then, the medium (corresponding to 50 μL/well) in the wells was removed, and a fresh medium was added thereto at a concentration of 30 μL/well. […] Then, the cell viability was measured using Cell Counting Kit-8 (Dojindo Laboratories).

[5] = Example 8, exposure 0.3 μmol/L, 24 h
[6] = Example 8, exposure 0.3 μmol/L, 24 h, negative control = 100%
[7] = Example 8, exposure 1 μmol/L, 24 h
[8] = Example 8, exposure 3 μmol/L, 24 h
[9] = Example 8, exposure 10 μmol/L, 24 h

Compound | Aβ (1-42) secretion rate of C99 cells [1, 5] | Aβ [(1-40) + (1-42)] secretion rate of C99 cells [1, 5] | Aβ (1-40) secretion rate of C99 cells [1, 6] | Aβ (1-40) secretion rate of C99 cells [1, 7] | Aβ (1-42) secretion rate of C99 cells [1, 7] | Aβ [(1-40) + (1-42)] secretion rate of C99 cells [1, 7] | Aβ (1-40) secretion rate of C99 cells [1, 8] | Aβ (1-42) secretion rate of C99 cells [1, 8] | Aβ [(1-40) + (1-42)] secretion rate of C99 cells [1, 8] | Aβ (1-40) secretion rate of C99 cells [1, 9] | Aβ (1-42) secretion rate of C99 cells [1, 9] | Aβ [(1-40) + (1-42)] secretion rate of C99 cells [1, 9] | (i)/(ii) ratio, Aβ / β-Alcα secretion rates ([2]; 2 μmol/L) | (i) Aβ secretion rate of HEK293 cells ([2]; 2 μmol/L) | (ii) β-Alcα secretion rate of HEK293 cells ([3]; 2 μmol/L) | (i)/(ii) ratio, Aβ / β-Alcα secretion rates ([2]; 0.2 μmol/L) | (i) Aβ secretion rate of HEK293 cells ([2]; 0.2 μmol/L) | (ii) β-Alcα secretion rate of HEK293 cells ([3]; 0.2 μmol/L) | also measured
Boc-Leu-Val-Met-Leu-OMe (Boc-LVML-OMe; SMILES COC(=O)[C@H](CC(C)C)NC(=O)[C@H](CCSC)NC(=O)[C@@H](NC(=O)[C@H](CC(C)C)NC(=O)OC(C)(C)C)C(C)C) [LVML-1, reference compound] | 95% | 138% | 140% | 112% | 78% | 110% | 106% | 104% | 105% | 83% | 61% | 82% |  |  |  |  |  |  | 
CSCC[C@H](NC(=O)[C@H](C)NC(=O)[C@H](CC(C)C)C[C@@H](O)[C@@H](NC(=O)OC(C)(C)C)[C@@H](C)O)C(=O)NCc1ccccc1 [TLVM-10, [5S-(tert-butoxycarbonylamino)-4R,6R-dihydroxy-2R-(2-methylpropyl)heptanoyl]-L-alanyl-L-methionine benzylamide] |  |  |  |  |  |  |  |  |  |  |  |  | 0.39 | 37% | 94% |  |  |  | cleavage of APP-C99, in words ([2]; 2 μmol/L): specifically inhibited; γ cleavage of the Alcα-C150, in words ([3]; 2 μmol/L): did not inhibit
C[C@H](NC(=O)Cc1cc(F)cc(F)c1)C(=O)N[C@H](C(=O)OC(C)(C)C)c1ccccc1 [DAPT, reference compound] |  |  |  |  |  |  |  |  |  |  |  |  | 1.26 | 20% | 16% | 0.35 | 8% | 23% | 
CC(C)C[C@H](NC(=O)[C@H](Cc1ccccc1)C[C@@H](O)[C@H](Cc1ccccc1)NC(=O)OC(C)(C)C)C(=O)N[C@@H](Cc1ccccc1)C(N)=O [L-685, 458, reference compound] | 96% | 101% | 101% | 68% | 70% | 68% | 38% | 49% | 39% | 9% | 24% | 9% |  |  |  |  |  |  | Aβ (1-40) secretion rate of C99 cells ([1]; Example 9, exposure 0.1 μmol/L): 114%; Aβ (1-42) secretion rate of C99 cells ([1]; Example 9, exposure 0.1 μmol/L): 97%; Aβ [(1-40) + (1-42)] secretion rate of C99 cells ([1]; Example 9, exposure 0.1 μmol/L): 113%; Aβ (1-40) secretion rate of C99 cells ([1]; Example 9, exposure 0.3 μmol/L): 90%; Aβ (1-42) secretion rate of C99 cells ([1]; Example 9, exposure 0.3 μmol/L): 91%; Aβ [(1-40) + (1-42)] secretion rate of C99 cells ([1]; Example 9, exposure 0.3 μmol/L): 90%; Aβ (1-40) secretion rate of C99 cells ([1]; Example 9, exposure 1 μmol/L): 72%; Aβ (1-42) secretion rate of C99 cells ([1]; Example 9, exposure 1 μmol/L): 87%; Aβ [(1-40) + (1-42)] secretion rate of C99 cells ([1]; Example 9, exposure 1 μmol/L): 73%; Aβ (1-40) secretion rate of C99 cells ([1]; Example 9, exposure 3 μmol/L): 32%; Aβ (1-42) secretion rate of C99 cells ([1]; Example 9, exposure 3 μmol/L): 8%; Aβ [(1-40) + (1-42)] secretion rate of C99 cells ([1]; Example 9, exposure 3 μmol/L): 31%; IC50 ([1]; Example 9, read-out: IC50, Aβ (1-40) secretion of C99 cells): 1800 nM; IC50 ([1]; Example 9, read-out: IC50, Aβ (1-42) secretion of C99 cells): 1700 nM; Cell viability of C99 cells ([4]; exposure 0.3 μmol/L): 133%; Cell viability of C99 cells ([4]; exposure 1 μmol/L): 125%; Cell viability of C99 cells ([4]; exposure 3 μmol/L): 110%; Cell viability of C99 cells ([4]; exposure 10 μmol/L): 99%
CSCC[C@H](NC(=O)[C@@H](NC(=O)[C@H](CC(C)C)C[C@@H](O)[C@@H](NC(=O)OC(C)(C)C)[C@@H](C)O)c1ccccc1)C(=O)NCc1ccccc1 [TLVM-11, [5S-(tert-butoxycarbonylamino)-4R,6R-dihydroxy-2R-(2-methylpropyl)heptanoyl]-L-phenylglycyl-L-methionine benzylamide] |  |  |  |  |  |  |  |  |  |  |  |  |  |  |  | 0.12 | 8% | 68% | cleavage of APP-C99, in words ([2]; 0.2 μmol/L): specifically inhibited; γ cleavage of the Alcα-C150, in words ([3]; 0.2 μmol/L): did not inhibit
